# Results from patent US11674959B2, “Methods for identifying and preparing pharmaceutical agents for activating Tie1 and/or Tie2 receptors” (The Johns Hopkins University, priority 2017, dated 2023).
# Columns and labels:
# [1] = tested on: myosin light chain 2 (MLC2); experiment: Western blot of MEC lysates for pMLC2; assay type: cell-based, human; conditions: AXT107 and 200 ng/ml Ang2
# Description: Phosphorylation of Tie2 is known to stimulate the Rap1-GTPase pathway, leading to a reduction in the phosphorylation of the downstream motor protein myosin light chain 2 (MLC2) associated with actin rearrangement.
# For Ang1/2 signaling investigations, cell culture dishes (10 cm diameter) were coated with 5 μg/ml fibronectin (FN1; Sigma-Aldrich, St. Louis, Mo.) for two hours at 37° C. The FN1 solution was then removed by aspiration and 5×10^6 microvascular endothelial cells (MECs; Lonza, Walkersville, Md.) were plated in EGM-2MV media (Lonza) and cultured for forty-eight hours at 37° C. The cells were then serum starved for sixteen hours in serum-free EGM-2 base media (Lonza). AXT107 (0-100 μM, as indicated) was subsequently added to each culture and incubated for seventy-five minutes at 37° C. […] Specific proteins were identified by Western blot, using the following primary antibodies: Cell Signaling—phospho-Tie2 (Y992) (Cat #: 4221), Tie2 (Cat #: 7403), phospho-Stat3 (Y705) (Cat #: 4113), Stat3 (Cat #: 4904), phospho-Akt (S473) (Cat #: 4058), Akt (Cat #: 9272), phospho-p44/42 MAPK (T202/Y204) (Cat #: 4370), p44/42 MAPK (Cat #: 4695); BD Transduction Laboratories—β1 integrin (Cat #: 610467); Millipore—α5 integrin (Cat #: AB1928) and detected with HRP-conjugated goat anti-rabbit and sheep anti-mouse secondary antibodies (GE healthcare).
# integrin α5β1 = integrin α5β1 (Homo sapiens, UniProt P05556+P08648); conditions: Lee et al. 2014; Lima et al. 2017; cited from earlier work
# Sequence of integrin α5β1 (P08648 42-1049): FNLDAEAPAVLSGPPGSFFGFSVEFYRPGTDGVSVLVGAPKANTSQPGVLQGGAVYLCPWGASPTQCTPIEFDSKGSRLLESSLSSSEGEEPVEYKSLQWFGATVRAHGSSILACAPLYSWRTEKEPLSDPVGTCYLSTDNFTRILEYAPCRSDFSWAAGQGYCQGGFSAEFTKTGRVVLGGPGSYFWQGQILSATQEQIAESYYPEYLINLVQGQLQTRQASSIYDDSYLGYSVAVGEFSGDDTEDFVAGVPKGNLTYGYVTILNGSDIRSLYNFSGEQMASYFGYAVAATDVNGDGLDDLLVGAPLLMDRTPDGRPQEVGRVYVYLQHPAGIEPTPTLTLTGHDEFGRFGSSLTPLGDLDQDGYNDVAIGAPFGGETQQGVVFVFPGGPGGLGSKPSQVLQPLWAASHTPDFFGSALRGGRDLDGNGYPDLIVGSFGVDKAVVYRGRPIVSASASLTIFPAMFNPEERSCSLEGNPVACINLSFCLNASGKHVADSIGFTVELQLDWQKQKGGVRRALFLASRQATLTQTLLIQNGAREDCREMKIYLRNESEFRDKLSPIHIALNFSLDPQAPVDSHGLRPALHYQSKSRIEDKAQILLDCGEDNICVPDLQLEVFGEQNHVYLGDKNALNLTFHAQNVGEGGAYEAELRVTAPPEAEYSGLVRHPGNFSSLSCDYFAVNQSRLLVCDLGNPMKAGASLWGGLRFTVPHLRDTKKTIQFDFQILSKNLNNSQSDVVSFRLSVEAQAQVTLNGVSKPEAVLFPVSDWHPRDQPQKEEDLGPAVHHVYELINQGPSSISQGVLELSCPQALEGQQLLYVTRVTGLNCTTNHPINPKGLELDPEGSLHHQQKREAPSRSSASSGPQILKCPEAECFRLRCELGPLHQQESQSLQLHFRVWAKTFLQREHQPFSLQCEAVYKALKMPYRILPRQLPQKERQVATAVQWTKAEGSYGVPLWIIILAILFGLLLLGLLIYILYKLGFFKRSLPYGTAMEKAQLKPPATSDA
# Sequence of integrin α5β1 (P05556 21-798): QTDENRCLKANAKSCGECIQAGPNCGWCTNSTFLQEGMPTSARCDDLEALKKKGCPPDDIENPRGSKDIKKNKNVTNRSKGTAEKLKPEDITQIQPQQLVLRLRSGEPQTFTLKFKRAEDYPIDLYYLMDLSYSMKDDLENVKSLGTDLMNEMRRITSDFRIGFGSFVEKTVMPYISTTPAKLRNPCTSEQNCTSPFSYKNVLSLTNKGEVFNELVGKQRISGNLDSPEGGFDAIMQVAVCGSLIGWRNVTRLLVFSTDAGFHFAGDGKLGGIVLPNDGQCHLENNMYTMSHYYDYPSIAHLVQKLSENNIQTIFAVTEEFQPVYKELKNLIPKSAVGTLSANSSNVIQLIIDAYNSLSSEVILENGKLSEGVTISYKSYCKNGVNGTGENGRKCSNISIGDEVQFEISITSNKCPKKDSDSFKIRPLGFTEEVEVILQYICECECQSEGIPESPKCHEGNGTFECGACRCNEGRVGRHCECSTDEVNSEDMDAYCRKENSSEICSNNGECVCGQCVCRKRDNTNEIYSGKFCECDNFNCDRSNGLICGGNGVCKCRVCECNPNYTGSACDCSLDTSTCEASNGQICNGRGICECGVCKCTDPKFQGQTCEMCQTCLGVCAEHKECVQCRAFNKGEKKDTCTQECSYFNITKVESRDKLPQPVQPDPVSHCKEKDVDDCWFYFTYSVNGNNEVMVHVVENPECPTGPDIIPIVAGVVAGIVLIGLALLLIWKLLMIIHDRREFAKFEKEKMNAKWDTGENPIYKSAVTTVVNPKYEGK
# Erk1/2 = experiment: Western blot of MEC lysates: Erk1/2 phosphorylation; assay type: cell-based, human; conditions: all tested conditions
# Description: To investigate the effects of the integrin inhibitor AXT107 on Tie2 signaling, confluent monolayers of microvascular endothelial cells (MECs) on fibronectin-coated dishes were treated with various concentrations of AXT107 followed by exposure to the Tie2 ligands Ang1 or Ang2.
# Human dermal microvascular endothelial cells (Lonza) were maintained at 37° C. and 5% CO2 in EBM-2MV medium (Lonza) and used between passages two through seven. Where applicable, cells were serum starved in EBM-2 medium (Lonza) with no supplements. For FITC-Dextran permeability assays phenol red-free media were used to avoid auto-fluorescence. […]
# For Ang1/2 signaling investigations, cell culture dishes (10 cm diameter) were coated with 5 μg/ml fibronectin (FN1; Sigma-Aldrich, St. Louis, Mo.) for two hours at 37° C. […] Specific proteins were identified by Western blot, using the following primary antibodies: Cell Signaling—phospho-Tie2 (Y992) (Cat #: 4221), Tie2 (Cat #: 7403), phospho-Stat3 (Y705) (Cat #: 4113), Stat3 (Cat #: 4904), phospho-Akt (S473) (Cat #: 4058), Akt (Cat #: 9272), phospho-p44/42 MAPK (T202/Y204) (Cat #: 4370), p44/42 MAPK (Cat #: 4695); BD Transduction Laboratories—β1 integrin (Cat #: 610467); Millipore—α5 integrin (Cat #: AB1928) and detected with HRP-conjugated goat anti-rabbit and sheep anti-mouse secondary antibodies (GE healthcare).
# α5β1 integrin = molecular target: T1, α5β1 integrin (Homo sapiens, UniProt P05556+P08648); experiment: Immunoprecipitation of α5 integrin in Triton X-100 fractionated lysates, blotted for β1; assay type: cell-based; conditions: after AXT107 treatment; data not shown
# T1 construct: host or cells: human dermal microvascular endothelial cells (MECs)
# T1 sequence (P08648 42-894 limits assumed): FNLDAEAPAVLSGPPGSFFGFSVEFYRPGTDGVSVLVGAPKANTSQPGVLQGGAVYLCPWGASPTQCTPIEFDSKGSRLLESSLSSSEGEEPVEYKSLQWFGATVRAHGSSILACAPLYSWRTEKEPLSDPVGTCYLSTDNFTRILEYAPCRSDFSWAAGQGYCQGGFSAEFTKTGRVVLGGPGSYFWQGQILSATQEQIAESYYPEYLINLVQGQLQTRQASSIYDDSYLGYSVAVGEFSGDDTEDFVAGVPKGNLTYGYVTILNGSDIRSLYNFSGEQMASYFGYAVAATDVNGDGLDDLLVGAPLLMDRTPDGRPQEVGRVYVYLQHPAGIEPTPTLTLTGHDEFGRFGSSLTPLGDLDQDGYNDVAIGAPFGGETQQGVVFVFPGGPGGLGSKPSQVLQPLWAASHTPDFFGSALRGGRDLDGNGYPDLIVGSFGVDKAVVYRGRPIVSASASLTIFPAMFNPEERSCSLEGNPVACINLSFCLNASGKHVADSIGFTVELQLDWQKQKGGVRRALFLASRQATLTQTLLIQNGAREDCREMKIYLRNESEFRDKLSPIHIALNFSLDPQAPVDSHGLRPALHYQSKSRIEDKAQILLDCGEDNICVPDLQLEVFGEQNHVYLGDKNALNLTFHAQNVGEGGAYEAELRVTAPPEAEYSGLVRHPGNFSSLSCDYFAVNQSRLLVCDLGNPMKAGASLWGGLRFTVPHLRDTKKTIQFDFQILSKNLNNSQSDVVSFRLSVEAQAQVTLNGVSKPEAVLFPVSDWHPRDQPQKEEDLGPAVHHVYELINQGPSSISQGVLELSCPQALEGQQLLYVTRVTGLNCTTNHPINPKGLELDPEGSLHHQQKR
# T1 sequence (P08648 895-1049 limits assumed): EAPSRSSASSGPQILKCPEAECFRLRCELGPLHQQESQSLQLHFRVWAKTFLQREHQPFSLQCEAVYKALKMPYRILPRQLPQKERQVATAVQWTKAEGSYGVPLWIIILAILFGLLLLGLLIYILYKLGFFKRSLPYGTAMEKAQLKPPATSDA
# T1 sequence (P05556 21-798): as the sequence (P05556 21-798) above
# Source text: Since β1 integrin is the only known β subunit to heterodimerize with the α5 integrin subunit, it unlikely that the α5 subunit, that was observed here in the insoluble fractions, originated from a heterodimeric integrin pair other than α5β1. Unfortunately, high background impaired the visualization of α5 integrin alone by immunofluorescence. Given the unexpected discovery that AXT107 dissociates the integrin heterodimer, this discovery was confirmed in several independent assays. […] Thus, interactions between Tie2 and heterodimerized α5β1 integrin appear to retain Tie2 at the EC-ECM interface.
# The isolation of Triton X-100 soluble and insoluble fractions was performed using modifications to previously-described procedures (see, e.g., Lampugnani et al., J Cell Biol. 1995; 129(1):203-217). FN1-coated six-well plates were seeded with 2.5×10^6 cells and cultured for forty-eight hours, as described above. The cultures were then serum starved for ninety minutes in EBM-2 media, treated with 100 μM AXT107 or DMSO vehicle, and fifteen minutes with 1 mM sodium vanadate. The cells were then stimulated with either 100 ng/ml VEGFA, 400 ng/ml Ang2, or PBS for fifteen minutes. The plates were then transferred to ice and washed twice with cold dPBS containing Ca^2+ and Mg^2+ and twice with EBM-2 media. […] Samples were analyzed by western blot as described above. […]
# Tie2 = Tie2 activation in vivo, retinopathy of prematurity (ROP) mouse model
# Source text: To investigate the effects of AXT107 on Tie2 activation in vivo, retinopathy of prematurity (ROP) mouse model was used. In this system, P7 pups are placed in 75% O2 for five days, resulting in a loss of retinal capillary density from hyperoxia and a rapid induction of neovascularization upon the pup's return to normoxic conditions. […] Increased levels of Ang2 in the vitreous contribute to vessel leakage and macular edema in various retinopathies.
sequence,measurement,setting,value
LRRFSTAPFAFIDINDVINF [AXT107],Phosphorylation of MLC2,[1],reduced in a dose-dependent manner
same,Binding to integrin α5β1,integrin α5β1,binds tightly
same,Erk1/2 phosphorylation,Erk1/2,remained constant in all tested conditions
same,α5-β1 interaction by fraction after α5 immunoprecipitation,α5β1 integrin,interactions with β1 were only found in the soluble fractions
same,Activation of Tie2 by Ang2 in vivo,Tie2,potentiates the activation of Tie2 by Ang2 both in vitro and in vivo
